In patent publication US20100119512A1, “METHODS OF DIAGNOSING, TREATING, AND PREVENTING INCREASED VASCULAR PERMEABILITY” (Joslin Diabetes Center, priority 2007, published 2010):

Assays:
[1] = system: prekallikrein (PK) activation by FXII; test: PK activation by FXII in the presence of HK, fluorogenic kallikrein substrate; format: biochemical, human; settings: for effect on kallikrein activation in vitro: PK activation by FXII in the presence of HK
Procedure: FIG. 2 is a line graph illustrating the effect of varying concentrations of C1-INH on PK activation by FXII in the presence of HK. Kallikrein activity was measured as cleavage of synthetic fluorogenic kallikrein substrate (0.4 mM) on a microplate reader at 37° C. at 15 minutes (means±s.e.m.; n=4).
FIG. 3 is line graph illustrating the effect of varying concentrations of anti-PK antibody on PK activation by FXII in the presence of HK (means±s.e.m. n=5-6).
The effects of C1-INH and anti-PK antibody on the kinetics of PK activation by factor XII (FXII) were monitored in vitro using a fluorescent kallikrein substrate. Fluorogenic kallikrein substrate (H-D-Val-Leu-Arg-AFC; Calbiochem) was used to quantify kallikrein enzymatic activity.

[2] = system: retinal vascular permeability; settings: rats, cited from earlier work

## CA-I: human erythrocyte CA-I (Sigma), carbonic anhydrase 1
[1]
  effect on kallikrein activation in vitro: Neither CA-I or bicarbonate ion affected
[2]; intravitreal
  effect of intravitreal injection on retinal vascular permeability: increased

## O=C(O)O [bicarbonate ion]
[1]
  effect on kallikrein activation in vitro: Neither CA-I or bicarbonate ion affected

## CC(=O)Nc1nnc(S(N)(=O)=O)s1 [acetazolamide, reference compound]
[2]
  effect on increased retinal permeability induced by transplant of vitreous from patients with advanced diabetic retinopathy: blocked

B1: C1-INH: C1 inhibitor; binds covalently to the active site of FXII (protein, UniProt P05155 23-500, looked up)
Plasma protease C1 inhibitor: NPNATSSSSQDPESLQDRGEGKVATTVISKMLFVEPILEVSSLPTTNSTTNSATKITANTTDEPTTQPTTEPTTQPTIQPTQPTTQLPTDSPTQPTTGSFCPGPVTLCSDLESHSTEAVLGDALVDFSLKLYHAFSAMKKVETNMAFSPFSIASLLTQVLLGAGENTKTNLESILSYPKDFTCVHQALKGFTTKGVTSVSQIFHSPDLAIRDTFVNASRTLYSSSPRVLSNNSDANLELINTWVAKNTNNKISRLLDSLPSDTRLVLLNAIYLSAKWKTTFDPKKTRMEPFHFKNSVIKVPMMNSKKYPVAHFIDQTLKAKVGQLQLSHNLSLVILVPQNLKHRLEDMEQALSPSVFKAIMEKLEMSKFQPTLLTLPRIKVTTSQDMLSIMEKLEFFDFSYDLNLCGLTEDPDLQVSAMQHQTVLELTETGVEAAAASAISVARTLLVFEVQQPFLFVLWDQQHKFPVFMGRVYDPRA
[1]; varying concentrations, FXII and HK present, fluorogenic kallikrein substrate 0.4 mM, 37° C., 15 minutes
  effect on PK activation (kallikrein activity): inhibited
[2]; intravitreal CA-1
  effect on CA-1-induced retinal vascular permeability: blocked
